Test results as given in ChEMBL document CHEMBL1136427, “Unique spirocyclopiperazinium salt I: synthesis and structure-activity relationship of spirocyclopiperazinium salts as analgesics” (2003).

Columns and labels:
Format in all cases: functional
Mus sp. [1] = experiment: Analgesic activity was evaluated in mice after s.c. administration of 20 mg/kg.; settings: for inhibition in vivo at 20 mg/kg: Mus sp., sc; for Inhibition: 20 mg/kg
Mus sp. [2] = experiment: Sedative activity was evaluated in mice after s.c. administration of 20 mg/kg.; settings: for inhibition in vivo at 20 mg/kg: Mus sp., sc; for Inhibition: 20 mg/kg
Mus sp. [3] = experiment: Analgesic activity was evaluated in mice after s.c. administration of 10 mg/kg.; settings: sc
Mus sp. [4] = experiment: Sedative activity was evaluated in mice after s.c. administration of 10 mg/kg.; settings: sc

Cc1ccc(C(=O)CCN2CC[N+]3(CCCC3)CC2)cc1
inhibition in vivo at 20 mg/kg (Mus sp. [1]): 25%
inhibition in vivo at 20 mg/kg (Mus sp. [2]): 14%

O=C(CCN1CC[N+]2(CCCC2)CC1)c1ccc([N+](=O)[O-])cc1
inhibition in vivo at 20 mg/kg (Mus sp. [1]): 12%
inhibition in vivo at 20 mg/kg (Mus sp. [2]): 35%

C(=C\c1ccccc1)/CN1CC[N+]2(CCCC2)CC1
inhibition in vivo at 20 mg/kg (Mus sp. [1]): 0%
inhibition in vivo at 20 mg/kg (Mus sp. [2]): 33%

Clc1ccccc1/C=C/CN1CC[N+]2(CCCC2)CC1
inhibition in vivo at 20 mg/kg (Mus sp. [1]): 27%
inhibition in vivo at 20 mg/kg (Mus sp. [2]): 59%

O=C1CCC(=O)N1CCCN1CC[N+]2(CCCC2)CC1
inhibition in vivo at 20 mg/kg (Mus sp. [1]): 20%
inhibition in vivo at 20 mg/kg (Mus sp. [2]): 10%

Clc1ccc(/C=C/CN2CC[N+]3(CCCC3)CC2)cc1
inhibition in vivo at 20 mg/kg (Mus sp. [1]): 19%
inhibition in vivo at 20 mg/kg (Mus sp. [2]): 12%

O=C(CCN1CC[N+]2(CCCC2)CC1)c1cccc(O)c1
inhibition in vivo at 20 mg/kg (Mus sp. [1]): 14%
inhibition in vivo at 20 mg/kg (Mus sp. [2]): 13%

OC(CCl)CN1CC[N+]2(CCCC2)CC1.[Br-] (stereo in doubt; 3)
Inhibition (Mus sp. [1]): 64%
Inhibition (Mus sp. [2]): 57%

O=C(CCN1CC[N+]2(CCCC2)CC1)c1ccsc1
inhibition in vivo at 20 mg/kg (Mus sp. [1]): 12%
inhibition in vivo at 20 mg/kg (Mus sp. [2]): 3%

OC(CCl)CN1CC[N+]2(CCCC2)CC1.[Br-] (stereo in doubt; 7a)
Inhibition (Mus sp. [1]): 0%
Inhibition (Mus sp. [2]): 0%

O=C(CCN1CC[N+]2(CCCC2)CC1)c1ccccc1
inhibition in vivo at 20 mg/kg (Mus sp. [1]): 25%
inhibition in vivo at 20 mg/kg (Mus sp. [2]): 11%

O=[N+]([O-])c1cccc(/C=C/CN2CC[N+]3(CCCC3)CC2)c1
inhibition in vivo at 20 mg/kg (Mus sp. [1]): 32%
inhibition in vivo at 20 mg/kg (Mus sp. [2]): 12%

O=C(CCN1CC[N+]2(CCCC2)CC1)c1ccoc1
inhibition in vivo at 20 mg/kg (Mus sp. [1]): 15%
inhibition in vivo at 20 mg/kg (Mus sp. [2]): 0%

O=[N+]([O-])c1ccc(/C=C/CN2CC[N+]3(CCCC3)CC2)cc1
inhibition in vivo at 20 mg/kg (Mus sp. [1]): 24%
inhibition in vivo at 20 mg/kg (Mus sp. [2]): 10%

c1ccc(OCCCCN2CC[N+]3(CCCC3)CC2)cc1
inhibition in vivo at 20 mg/kg (Mus sp. [1]): 9%
inhibition in vivo at 20 mg/kg (Mus sp. [2]): 4%

O=C(CCN1CC[N+]2(CCCC2)CC1)c1cccc([N+](=O)[O-])c1
inhibition in vivo at 20 mg/kg (Mus sp. [1]): 59%
inhibition in vivo at 20 mg/kg (Mus sp. [2]): 0%

O=C(CCN1CC[N+]2(CCCC2)CC1)c1ccc(O)cc1
inhibition in vivo at 10 mg/kg (Mus sp. [3]): 77%
inhibition in vivo at 20 mg/kg (Mus sp. [1]): 100%
inhibition in vivo at 20 mg/kg (Mus sp. [2]): 85%

Clc1cccc(/C=C/CN2CC[N+]3(CCCC3)CC2)c1
inhibition in vivo at 20 mg/kg (Mus sp. [1]): 42%
inhibition in vivo at 20 mg/kg (Mus sp. [2]): 51%

C=C(C)CN1CC[N+]2(CCCC2)CC1
inhibition in vivo at 20 mg/kg (Mus sp. [1]): 0%
inhibition in vivo at 20 mg/kg (Mus sp. [2]): 0%

OCCN1CC[N+]2(CCCC2)CC1
inhibition in vivo at 20 mg/kg (Mus sp. [1]): 10%
inhibition in vivo at 20 mg/kg (Mus sp. [2]): 0%

C=CCN1CC[N+]2(CCCC2)CC1
inhibition in vivo at 10 mg/kg (Mus sp. [3]): 45%
inhibition in vivo at 10 mg/kg (Mus sp. [4]): 0%
inhibition in vivo at 20 mg/kg (Mus sp. [1]): 100%
inhibition in vivo at 20 mg/kg (Mus sp. [2]): 0%

CCN1CC[N+]2(CCCC2)CC1
inhibition in vivo at 20 mg/kg (Mus sp. [1]): 0%
inhibition in vivo at 20 mg/kg (Mus sp. [2]): 0%

C1CC[N+]2(C1)CCN(CCC1OCCO1)CC2
inhibition in vivo at 20 mg/kg (Mus sp. [1]): 36%
inhibition in vivo at 20 mg/kg (Mus sp. [2]): 25%
